Our source for the IC50 values is patent publication US20250179059A1 (The Regents of the University of California, priority 2021, published 2025).

In this experiment the target is T1, human BRD4 bromodomain II (Homo sapiens, UniProt O60885).
T1 construct: human BRD4 bromodomain II [based on Genbank NM_058243, residues 349-460]; host or cells: E. coli
Briefly: Bromodomain binding assay (AlphaScreen), BRD4 BDII. As to conditions: AlphaScreen assay, Table C2; read-out: BRD4 BDII IC50. Here is the method: Bromodomain Binding Assay
The bromodomain binding assay utilizes AlphaScreen technology. Compounds compete with a biotinylated peptide ligand (from histone H4: aa 1-21, K5/K8/K12/K16Ac-biotin) for binding to a hexahistidine (His6)-tagged bromodomain. Peptide binding is detected by fluorescence signal after singlet oxygen energy transfer from peptide-bound AlphaScreen streptavidin-coated donor beads to His6-tagged bromodomain-bound nickel-chelate acceptor beads (PerkinElmer). Briefly, 8 μL 2.5× bromodomain (E. coli expressed, N-terminal His6-tagged human BRD4 bromodomain II [based on Genbank NM_058243, residues 349-460] or N-terminal His6-tagged human BRD4 bromodomain I [residues 44-170]) in reaction buffer (50 mM HEPES [pH 7.5], 100 mM NaCl, 0.05% CHAPS, 0.1% BSA, 1% DMSO) is added to wells of an assay plate (384-well low flange white, flat bottom, polystyrene microplate, Corning #3572; buffer only is added to some wells as a negative control). A compound concentration series (10 concentrations, 3-fold serial dilutions previously prepared in 100% DMSO, or 100% DMSO only negative control) is delivered to the assay plate with an Echo 550 acoustic liquid handler (Labcyte), followed by plate centrifugation and incubation for 30 minutes at room temperature. Then 4 μL 5× biotinylated peptide ligand is added, followed by plate centrifugation and gentle shaking for 30 minutes at room temperature to mix. After this incubation, 4 μL 5× donor beads are added, and the plate is centrifuged, followed by brief gentle shaking to mix. Finally, 4 μL 5× acceptor beads are added, and the plate is centrifuged, followed by gentle shaking for 60 minutes at room temperature in the dark. AlphaScreen signal (excitation/emission: 680 nm/520-620 nm) is detected with an EnSpire multimode plate reader (PerkinElmer). Percentage peptide binding is plotted as a function of concentration, and curve fitting is used to determine competitive compound binding ICsos.

SMILES strings stand for the structures.

What is called IC50 is the midpoint of a concentration-inhibition curve.

As for `CCOc1cc(-c2cccc(-c3ccc(NC(C)=O)c(F)c3)c2O)ccc1NC(C)=O` [Example 52, N,N′-(3-Ethoxy-3″-fluoro-2′-hydroxy-[1,1′:3′,1″-terphenyl]-4,4″-diyl)diacetamide], the IC50 is 10 to 100 nM.

Turning to `CCNC(=O)c1ccc(-c2cccc(-c3ccc(NC(C)=O)c(F)c3)c2O)cc1` [Example 92, 4″-Acetamido-N-ethyl-3″-fluoro-2′-hydroxy-[1,1′:3′,1″-terphenyl]-4-carboxamide], the IC50 is more than 100 nM. As for `CC(=O)Nc1ccc(-c2cccc(-c3cccc(-c4ccc(N)nc4)c3)c2O)cc1F` [Example 202, N-(3″-(6-aminopyridin-3-yl)-3-fluoro-2′-hydroxy-[1,1′:3′,1″-terphenyl]-4-yl)acetamide], the figure is more than 100 nM; as for `CC(=O)Nc1ccc(-c2cccc(-c3ccc(NC(C)=O)c(F)c3)c2O)cc1C` [Example 50, N,N′-(3-Fluoro-2′-hydroxy-3″-methyl-[1,1′:3′,1″-terphenyl]-4,4″-diyl)diacetamide], 10 to 100 nM; as for `CC(=O)Nc1ccc(-c2cccc(-c3ccc4c(c3)CCN4C(C)=O)c2O)cc1F` [Example 47, N-(3′-(1-Acetylindolin-5-yl)-3-fluoro-2′-hydroxy-[1,1′-biphenyl]-4-yl)acetamide], more than 100 nM. The figure for `CC(=O)Nc1ccc(-c2cccc(-c3cccc(-c4c[nH]cn4)c3)c2O)cc1F` [Example 229, N-(3-fluoro-2′-hydroxy-3″-(1H-imidazol-4-yl)-[1,1′:3′,1″-terphenyl]-4-yl)acetamide] is 10 to 100 nM; for `O=C1CCCN1c1ccc(-c2cccc(-c3cc(N4CCNCC4)no3)c2O)cc1F` [Example 113, 1-(3-Fluoro-2′-hydroxy-3′-(3-(piperazin-1-yl)isoxazol-5-yl)-[1,1′-biphenyl]-4-yl)pyrrolidin-2-one] it is 10 to 100 nM; for `CC(=O)Nc1ccc(-c2cccc(-c3cccc(C(F)(F)F)c3)c2O)cc1F` [Example 78, N-(3-Fluoro-2′-hydroxy-3″-(trifluoromethyl)-[1,1′:3′,1″-terphenyl]-4-yl)acetamide] it is more than 100 nM.

Regarding `CC(=O)Nc1ccc(-c2cccc(-c3ccc4c(c3)CCN4)c2O)cc1F` [Example 137, N-(3-fluoro-2′-hydroxy-3′-(indolin-5-yl)-[1,1′-biphenyl]-4-yl)acetamide], the IC50 is more than 100 nM. The figure for `COc1cc(F)cc(-c2cccc(-c3ccc(NC(C)=O)c(F)c3)c2O)c1` [Example 146, N-(3,3″-difluoro-2′-hydroxy-5″-methoxy-[1,1′:3′,1″-terphenyl]-4-yl)acetamide] is more than 100 nM; for `CC(=O)Nc1ccc(-c2cccc(-c3cnc(N4CCNCC4)o3)c2O)cc1F` [Example 112, N-(3-Fluoro-2′-hydroxy-3′-(2-(piperazin-1-yl)oxazol-5-yl)-[1,1′-biphenyl]-4-yl)acetamide] it is 10 to 100 nM; for `CC(=O)Nc1ccc(-c2cccc(-c3ccc(NC(C)=O)c(F)c3)c2O)cc1F` [Example 33, N,N′-(3,3″-Difluoro-2′-hydroxy-[1,1′:3′,1″-terphenyl]-4,4″-diyl)diacetamide] it is more than 100 nM.

As for `CC(=O)Nc1ccc(-c2cc(F)cc(-c3ccc(F)c(C4=CCNCC4)c3)c2O)cc1F` [Example 247, N-(3,4″,5′-trifluoro-2′-hydroxy-3″-(1,2,3,6-tetrahydropyridin-4-yl)-[1,1′:3′,1″-terphenyl]-4-yl)acetamide], the IC50 fell in the range of 1 to 10 nM. The figure for `CC(=O)Nc1ccc(-c2cccc(-c3cnc4[nH]ccc4c3)c2O)cc1F` [Example 124, N-(3-fluoro-2′-hydroxy-3′-(1H-pyrrolo[2,3-b]pyridin-5-yl)-[1,1′-biphenyl]-4-yl)acetamide] is more than 100 nM. In the case of `O=C1NCCN1c1ccc(-c2cccc(-c3ccnc(N4CCNCC4)c3)c2O)cc1Cl` [Example 228, 1-(3-chloro-2′-hydroxy-3′-(2-(piperazin-1-yl)pyridin-4-yl)-[1,1′-biphenyl]-4-yl)imidazolidin-2-one], the IC50 fell in the range of 1 to 10 nM.

With `CC(=O)Nc1ccc(-c2cccc(-c3cccc(OC4CCC4)c3)c2O)cc1F` [Example 114, N-(3″-Cyclobutoxy-3-fluoro-2′-hydroxy-[1,1′:3′,1″-terphenyl]-4-yl)acetamide], the IC50 is more than 100 nM. On to `CC(=O)Nc1ccc(-c2cccc(-c3ccc(Cl)cc3)c2O)cc1F` [Example 81, N-(4″-Chloro-3-fluoro-2′-hydroxy-[1,1′:3′,1″-terphenyl]-4-yl)acetamide], for which the IC50 was more than 100 nM.

Take `CC(=O)Nc1ccc(-c2cccc(-c3cccc(N4CCNC[C@@H]4C)c3)c2O)cc1F` [Example 168, (S)-N-(3-fluoro-2′-hydroxy-3″-(2-methylpiperazin-1-yl)-[1,1′:3′,1″-terphenyl]-4-yl)acetamide]: the half-maximal inhibitory concentration (IC50) fell in the range of 10 to 100 nM. In the case of `O=C1CCCN1c1c(F)cc(-c2cccc(-c3ccncc3)c2O)cc1F` [Example 207, 1-(3,5-difluoro-2′-hydroxy-3′-(pyridin-4-yl)-[1,1′-biphenyl]-4-yl)pyrrolidin-2-one], the IC50 is more than 100 nM. The figure for `CC(=O)Nc1ccc(-c2cccc(-c3cccc(F)c3)c2O)cc1F` [Example 54, N-(3,3″-Difluoro-2′-hydroxy-[1,1′:3′,1″-terphenyl]-4-yl)acetamide] is more than 100 nM; for `CC(=O)Nc1ccc(-c2cccc(-c3cc(N4CCNCC4)no3)c2O)cc1OC1CC1` [Example 44, N-(3-Cyclopropoxy-2′-hydroxy-3′-(3-(piperazin-1-yl)isoxazol-5-yl)-[1,1′-biphenyl]-4-yl)acetamide 2,2,2-trifluoroacetate] it is 10 to 100 nM. Take `CC(=O)Nc1ccc(-c2cccc(-c3cccc(N4C[C@H]5CC[C@@H](C4)N5)c3)c2O)cc1F` [Example 176, N-(3″-((1R,5S)-3,8-diazabicyclo[3.2.1]octan-3-yl)-3-fluoro-2′-hydroxy-[1,1′:3′,1″-terphenyl]-4-yl)acetamide]: the IC50 was in the range of 10 to 100 nM. As for `CC(=O)Nc1ccc(-c2cccc(-c3cccc(N4CCNC[C@H]4C)c3)c2O)cc1F` [Example 169, (R)-N-(3-fluoro-2′-hydroxy-3″-(2-methylpiperazin-1-yl)-[1,1′:3′,1″-terphenyl]-4-yl)acetamide], the figure is 1 to 10 nM; as for `CCOc1cccc(-c2cccc(-c3ccc(NC(C)=O)c(F)c3)c2O)c1` [Example 72, N-(3″-Ethoxy-3-fluoro-2′-hydroxy-[1,1′:3′,1″-terphenyl]-4-yl)acetamide], more than 100 nM. For `CC(=O)Nc1ccc(-c2cccc(-c3cccc(N4CCC5(CC4)CNC5)c3)c2O)cc1F` [Example 196, N-(3-fluoro-2′-hydroxy-3″-(2,7-diazaspiro[3.5]nonan-7-yl)-[1,1′:3′,1″-terphenyl]-4-yl)acetamide], the concentration for half-maximal inhibition (IC50) was in the range of 10 to 100 nM. As for `CC(=O)Nc1ccc(-c2cccc(-n3cnc(-c4ccc(F)cc4)c3)c2O)cc1` [Example 18, N-(3′-(4-(4-Fluorophenyl)-1H-imidazol-1-yl)-2′-hydroxy-[1,1′-biphenyl]-4-yl)acetamide], the half-maximal inhibitory concentration (IC50) was more than 100 nM. On to `CCOC(=O)c1cccc(-c2cccc(-c3ccc(NC(C)=O)c(F)c3)c2O)c1` [Example 70, Ethyl 4″-acetamido-3″-fluoro-2′-hydroxy-[1,1′:3′,1″-terphenyl]-3-carboxylate], for which the IC50 is more than 100 nM. As for `CC(=O)Nc1c(F)cc(-c2cccc(-c3cccc(N4CCNCC4)c3)c2O)cc1OC1CC1` [Example 175, N-(3-cyclopropoxy-5-fluoro-2′-hydroxy-3″-(piperazin-1-yl)-[1,1′:3′,1″-terphenyl]-4-yl)acetamide], the figure is 10 to 100 nM; as for `CCN1CCN(c2cc(-c3cccc(-c4ccc(NC(C)=O)c(F)c4)c3O)on2)CC1` [Example 151, N-(3′-(3-(4-ethylpiperazin-1-yl)isoxazol-5-yl)-3-fluoro-2′-hydroxy-[1,1′-biphenyl]-4-yl)acetamide], 10 to 100 nM.

In the case of `CC(=O)Nc1ccc(-c2cccc(-c3ccncc3)c2O)cc1F` [Example 67, N-(3-Fluoro-2′-hydroxy-3′-(pyridin-4-yl)-[1,1′-biphenyl]-4-yl)acetamide], the concentration for half-maximal inhibition (IC50) was more than 100 nM.

For the molecule `CC(=O)Nc1ccc(-c2cccc(-c3ccc4c(c3)ncn4C)c2O)cc1F` [Example 121, N-(3-Fluoro-2′-hydroxy-3′-(1-methyl-1H-benzo[d]imidazol-5-yl)-[1,1′-biphenyl]-4-yl)acetamide], the IC50 was more than 100 nM. As for `CC(=O)Nc1ccc(-c2cc(F)cc(-c3cnn(C4CCN(C)CC4)c3)c2O)cc1F` [Example 84, N-(3,5′-Difluoro-2′-hydroxy-3′-(1-(1-methylpiperidin-4-yl)-1H-pyrazol-4-yl)-[1,1′-biphenyl]-4-yl)acetamide], the figure is more than 100 nM; as for `CC(=O)Nc1ccc(-c2cccc(-c3ccc4cnccc4c3)c2O)cc1F` [Example 145, N-(3-fluoro-2′-hydroxy-3′-(isoquinolin-6-yl)-[1,1′-biphenyl]-4-yl)acetamide], 10 to 100 nM.
